The values that follow come from patent US4072744A, “N^2 -naphthalenesulfonyl-L-argininamides and the pharmaceutically acceptable salts thereof” (Mitsubishi Chemical Industries Limited, priority 1974, dated 1978).

For orientation: LD50 means the dose at which mortality reaches 50%. The low end stands for greater toxicity, the high end for lower toxicity.

This data set can be described thus: acute toxicity (LD50) by intraperitoneal administration in mice. The following applies: mouse, in vivo, ip, mice (male, 20 g). The text has this: Representative LD50 values, for example, for N^2 -(5,6,7,8-tetrahydro-1-naphthalenesulfonyl)-N-methoxyethylglycine, N^2 -(7-methyl-2-naphthalenesulfonyl)-N-butylglycine and N^2 -(6,7-dimethyl-1-naphthalenesulfonyl)-N-methoxyethylglycine are above 1,500 milligrams per kilogram, respectively.
`COCCN(CC(=O)O)C(=O)[C@H](CCCNC(=N)N)NS(=O)(=O)c1cccc2c1CCCC2` [Sample 3, N^2-(5,6,7,8-tetrahydro-1-naphthalenesulfonyl)-L-arginyl-N-methoxyethylglycine] had an LD50 of over 1500 mg/kg.
`CCCCN(CC(=O)O)C(=O)[C@H](CCCNC(=N)N)NS(=O)(=O)c1ccc2ccc(C)cc2c1` [Sample 14, N^2-(7-methyl-2-naphthalenesulfonyl)-L-arginyl-N-butylglycine] gave a median lethal dose (LD50) of over 1500 mg/kg.
Next, `COCCN(CC(=O)O)C(=O)[C@H](CCCNC(=N)N)NS(=O)(=O)c1cccc2cc(C)c(C)cc12` [Sample 23, N^2-(6,7-dimethyl-1-naphthalenesulfonyl)-L-arginyl-N-methoxyethylglycine]: over 1500 mg/kg.
